The record followed here is article PMC5843753, “Comparative analysis of plant isochorismate synthases reveals structural mechanisms underlying their distinct biochemical properties” (Bioscience Reports, 2018).

Assay [1] addresses T1, OsICS (Oryza sativa, UniProt A0A286T796).
T1 construct: own transit peptide replaced by that of AtICS1 or of tobacco Rubisco small subunit; N. benthamiana leaves, P. fluorescens IPL PmsB as coupling enzyme
T1 sequence (A0A286T796 46-581): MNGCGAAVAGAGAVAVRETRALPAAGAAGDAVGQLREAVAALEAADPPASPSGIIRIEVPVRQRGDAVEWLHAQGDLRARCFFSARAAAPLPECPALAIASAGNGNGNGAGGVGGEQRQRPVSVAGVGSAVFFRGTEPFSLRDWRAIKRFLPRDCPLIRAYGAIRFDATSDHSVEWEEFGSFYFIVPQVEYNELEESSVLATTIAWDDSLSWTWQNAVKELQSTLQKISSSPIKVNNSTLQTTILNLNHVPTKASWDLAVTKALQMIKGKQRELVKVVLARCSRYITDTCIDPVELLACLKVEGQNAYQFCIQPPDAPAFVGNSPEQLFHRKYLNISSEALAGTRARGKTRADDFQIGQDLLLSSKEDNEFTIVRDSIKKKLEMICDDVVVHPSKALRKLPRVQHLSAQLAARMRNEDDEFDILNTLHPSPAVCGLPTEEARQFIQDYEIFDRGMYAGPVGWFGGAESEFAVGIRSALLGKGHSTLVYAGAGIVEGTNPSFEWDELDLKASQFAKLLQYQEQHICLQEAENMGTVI
Description: in planta SA accumulation with co-expressed IPL. The assay is classed as cell-based. Conditions: endogenous chorismate, N. benthamiana leaves, transit peptide replaced.

The target of assay [2] is T2, EntC (Escherichia coli, UniProt P0AEJ2).
T2 construct: N-terminal His6 (pET28a), E. coli SHuffle T7, crude desalted protein fraction; also with tobacco Rubisco small subunit transit peptide and 3xFLAG in N. benthamiana
T2 sequence (P0AEJ2 1-391): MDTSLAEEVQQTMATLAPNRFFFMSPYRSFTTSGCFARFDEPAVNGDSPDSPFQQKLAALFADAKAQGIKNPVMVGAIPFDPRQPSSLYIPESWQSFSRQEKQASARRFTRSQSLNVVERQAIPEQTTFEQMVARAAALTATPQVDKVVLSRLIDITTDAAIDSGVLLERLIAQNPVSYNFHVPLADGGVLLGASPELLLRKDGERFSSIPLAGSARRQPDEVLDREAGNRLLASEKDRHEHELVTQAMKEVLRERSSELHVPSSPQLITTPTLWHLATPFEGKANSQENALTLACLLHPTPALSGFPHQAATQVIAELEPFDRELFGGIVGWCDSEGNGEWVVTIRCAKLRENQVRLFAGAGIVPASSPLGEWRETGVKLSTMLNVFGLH
Description: isochorismate converted into SA, SA measured. The assay is classed as biochemical. Conditions: 1 mM barium chorismate, 10 mM MgCl2, pH 7.5, 30 C, 1 h; crude E. coli fraction; linearity not confirmed for EntC in E. coli.

The target of assay [3] is T3, AtICS1 (Arabidopsis thaliana, UniProt Q9S7H8).
T3 construct: gene ICS1; putative chloroplast transit peptide removed, N-terminal His6 (pET28a), E. coli SHuffle T7, crude desalted protein fraction; also C-terminal 3xFLAG in N. benthamiana leaves
Kind of assay: isochorismate converted into SA, SA measured. The assay is classed as biochemical. Conditions: 1 mM barium chorismate, 10 mM MgCl2, pH 7.5, 30 C, 1 h; crude E. coli fraction.

The target of assay [4] is T4, NtICS (Nicotiana tabacum, UniProt A0A286T848).
T4 sequence (A0A286T848 48-584): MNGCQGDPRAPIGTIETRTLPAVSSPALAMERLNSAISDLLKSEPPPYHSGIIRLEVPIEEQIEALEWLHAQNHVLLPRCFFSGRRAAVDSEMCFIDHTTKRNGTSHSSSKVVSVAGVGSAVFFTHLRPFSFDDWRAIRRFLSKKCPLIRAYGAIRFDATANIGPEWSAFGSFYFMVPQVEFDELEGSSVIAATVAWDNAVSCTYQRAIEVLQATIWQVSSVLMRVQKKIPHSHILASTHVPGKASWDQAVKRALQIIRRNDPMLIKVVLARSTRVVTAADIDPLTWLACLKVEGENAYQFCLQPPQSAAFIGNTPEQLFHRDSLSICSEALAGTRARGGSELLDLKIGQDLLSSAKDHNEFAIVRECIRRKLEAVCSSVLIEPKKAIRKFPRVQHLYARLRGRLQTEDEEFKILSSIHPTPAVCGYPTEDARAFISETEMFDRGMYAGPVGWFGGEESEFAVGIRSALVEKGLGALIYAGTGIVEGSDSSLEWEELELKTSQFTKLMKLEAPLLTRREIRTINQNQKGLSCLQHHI
Kind of assay: in planta SA accumulation with co-expressed IPL. Conditions: endogenous chorismate, N. benthamiana leaves, ICS to IPL 1:19. The assay is classed as cell-based.

Assay [5] addresses NbICS (Nicotiana benthamiana, UniProt A0A286T8R2). Description: in planta SA accumulation with co-expressed IPL. The assay is classed as cell-based. Conditions: endogenous chorismate, N. benthamiana leaves, ICS to IPL 1:19.
The target of assay [6] is T5, AtICS1 (Arabidopsis thaliana, UniProt Q9S7H8, T531A).
T5 construct: gene ICS1; putative chloroplast transit peptide removed, N-terminal His6 (pET28a), E. coli SHuffle T7, crude desalted protein fraction; also C-terminal 3xFLAG in N. benthamiana leaves
Kind of assay: isochorismate converted into SA, SA measured. The assay is classed as biochemical. Conditions: 1 mM barium chorismate, 10 mM MgCl2, pH 7.5, 30 C, 1 h; crude E. coli fraction.

T3 sequence (Q9S7H8 46-569): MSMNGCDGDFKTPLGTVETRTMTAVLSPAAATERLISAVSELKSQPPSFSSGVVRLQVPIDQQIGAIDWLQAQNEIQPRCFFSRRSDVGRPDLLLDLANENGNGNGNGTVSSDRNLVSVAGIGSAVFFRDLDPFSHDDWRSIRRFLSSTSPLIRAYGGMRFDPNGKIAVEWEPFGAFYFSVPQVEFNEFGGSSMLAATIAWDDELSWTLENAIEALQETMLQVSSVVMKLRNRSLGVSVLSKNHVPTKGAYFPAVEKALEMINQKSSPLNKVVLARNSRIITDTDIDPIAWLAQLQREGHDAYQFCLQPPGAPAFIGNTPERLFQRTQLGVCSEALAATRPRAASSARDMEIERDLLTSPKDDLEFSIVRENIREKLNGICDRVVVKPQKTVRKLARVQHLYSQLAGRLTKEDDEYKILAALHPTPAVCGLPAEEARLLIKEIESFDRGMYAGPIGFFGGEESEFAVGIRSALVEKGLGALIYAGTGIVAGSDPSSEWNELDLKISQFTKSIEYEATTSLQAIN
T5 sequence (Q9S7H8 46-569 T531A): as the sequence (Q9S7H8 46-569) above, with T486A counted along it
NbICS, sequence (A0A286T8R2 53-590): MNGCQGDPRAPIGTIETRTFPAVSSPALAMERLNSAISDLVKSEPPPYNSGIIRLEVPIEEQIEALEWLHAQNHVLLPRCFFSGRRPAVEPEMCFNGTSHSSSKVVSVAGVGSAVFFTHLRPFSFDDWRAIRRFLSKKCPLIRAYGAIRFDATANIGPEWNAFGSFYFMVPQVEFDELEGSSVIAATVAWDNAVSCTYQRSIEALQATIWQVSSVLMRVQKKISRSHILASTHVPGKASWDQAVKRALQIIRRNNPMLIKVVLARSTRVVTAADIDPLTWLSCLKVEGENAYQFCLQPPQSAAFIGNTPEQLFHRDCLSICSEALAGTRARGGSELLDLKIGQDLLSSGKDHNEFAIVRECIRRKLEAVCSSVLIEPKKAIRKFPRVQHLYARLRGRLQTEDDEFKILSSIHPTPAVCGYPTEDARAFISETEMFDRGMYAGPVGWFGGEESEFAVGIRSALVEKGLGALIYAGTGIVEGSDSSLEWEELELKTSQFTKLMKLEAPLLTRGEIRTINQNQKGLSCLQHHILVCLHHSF

`C=C(O[C@@H]1C=C(C(=O)O)C=C[C@H]1O)C(=O)O` [chorismate]: the SA level entry in assay [1] is “OsICS with TP^AtICS1 or TP^SS showed low but significant levels of ICS activity in planta”; in assay [4] it was “expression of NtICS or NbICS with IPL resulted in significant increases in the levels of SA”; in assay [5] it was “expression of NtICS or NbICS with IPL resulted in significant increases in the levels of SA”. The ICS activity result in assay [2] is “AtICS1 and EntC showed activity that was much higher than the empty vector control”; in assay [3], “AtICS1 and EntC showed activity that was much higher than the empty vector control”; in assay [6], “The T531A mutant showed the lowest activity compared with the S537T and I550A mutants”.
